Where two headings read alike, the source gives them in different places.
How the values were obtained:
[1] = tested on: 60 human tumor cell lines; test: cells
[2] = target: Yeast α-Glucosidase; test: Yeast α-glucosidase activity assay; type: biochemical, S. cerevisiae; details: pH 6.8, 37 °C, p-nitrophenyl-α-D-glucopyranoside 1 mM; read-out: Yeast α-Glucosidase, IC50 ± SE
Procedure: (§1) Taken together, these considerations prompted us to evaluate a series of lupanes with amide function or polyamine chain 11, 12, 16, 18, and 22–26 for α-glucosidase inhibition. Initially, they were screened against α-glucosidase of S. cerevisiae as an accessible and high-throughput model. Confirmatory experiments were performed on isolated rough endoplasmic reticulum vesicles from rat liver, which contain neutral α-glucosidases I and II in a membrane-bound form.
In a 96-well flat transparent plate, the 0.12 U/mL enzyme solution (EC 3.2.1.20, expressed in S. cerevisiae, Sigma #G0660, St. Louis, MO, USA) was incubated with test compounds in 67 mM PBS (pH 6.8) at 37 °C for 5 min. Then, p-nitrophenyl-α-D-glucopyranoside (Sigma #N1377, St. Louis, MO, USA) was added to 1 mM final concentration and an increase in absorbance was recorded for 15 min at 405 nm wavelength with Infinite M200 PRO microplate reader (Tecan, Austria). Test compounds were dissolved in DMSO and diluted to the desired concentration in 67 mM PBS (pH 6.8) supplemented with 0.01% Tween 80 to avoid aggregation. Final DMSO concentration was <0.25% in sample wells, and it was also introduced in control and blank wells. […] Due to the absence of normal distribution of data, a Mann–Whitney U-test was used to determine statistical significance versus enzyme control using GraphPad Prism 8.0.1.

[3] = tested on: Rat Liver ER Neutral α-Glucosidase; test: Endoplasmic reticulum α-glucosidase activity assay; type: biochemical
Excerpt: as §1, with “Betulinic acid inhibits yeast α-glucosidase activity and interferes with N-linked glycan modifications to cell-surface intercellular adhesion molecule-1 (ICAM-1) in human lung carcinoma A549 cells in a similar manner to castanospermine, an inhibitor of endoplasmic reticulum α-glucosidases I and II [66]. […] Taken” for “Taken”
Endoplasmic reticulum was isolated from hepatocytes of decapitated male Sprague-Dawley rats, which were starved overnight and sacrificed the next morning. All experiments were approved by Volgograd regional ethic committee. The whole procedure was performed at 4 °C. In brief, a fresh tissue sample from an animal was washed twice with 10 mL of PBS to remove residual blood. The tissue was placed on a paper towel in order to absorb excess liquid and blood clots, if present. It was cut further into small pieces (1.5–2 cm) and washed once more. […] Homogenate was centrifuged at 1000× g for 10 min at 4 °C. After removal of the floating lipid layer by aspiration, supernatant was separated and centrifuged at 12,000× g for 15 min. at 4 °C. The supernatant fraction, which is the post mitochondrial fraction (PMF), was used for isolation of rough endoplasmic reticulum (RER) enriched microsomes by precipitation with 8 mM CaCl2 added dropwise. The final concentration of CaCl2 was 7 mM. Resulting sample was centrifuged at 8000 g for 10 min. at 4 °C. The supernatant was discarded, and the pellet was suspended in isotonic extraction buffer (0.3 mL of buffer for each g of original tissue). The suspension was homogenized completely to afford RER enriched microsomes. In a 96-well flat transparent plate 25 µL of the isolated RER microsomes were incubated with 50 µL of test compounds in 67 mM PBS (pH 6.8) at 37 °C for 10 min. Then, p-nitrophenyl-α-D-glucopyranoside (Sigma #N1377, St. Louis, MO, USA) was added to 1 mM final concentration and increase in absorbance was recorded for 42 min at 405 nm wavelength with Infinite M200 PRO microplate reader (Tecan, Austria). Concentration of RER microsomes was adjusted to achieve an increase in optical density of ~0.2 in control samples after 30 min. of incubation. Test compounds were prepared as described above for the yeast α-glucosidase assay.

[4] = tested on: CCRF-CEM; test: NCI-60 SRB screen: leukemia CCRF-CEM; type: cell-based; details: Homo sapiens, 48 h, single dose 10 µM, read-out: Percentage Cell Growth
[5] = tested on: K-562; test: NCI-60 SRB screen: leukemia K-562; type: cell-based, human; details: K-562; single dose 10 µM
[6] = tested on: MOLT-4; test: NCI-60 SRB screen: leukemia MOLT-4; type: cell-based; details: Homo sapiens, 48 h; MOLT-4; single dose 10 µM; read-out: Percentage Cell Growth
[7] = tested on: RPMI-8226; test: NCI-60 SRB screen: leukemia RPMI-8226; type: cell-based; details: Homo sapiens, 48 h; RPMI-8226; single dose 10 µM; read-out: Percentage Cell Growth
[8] = tested on: SR; test: NCI-60 SRB screen: leukemia SR; type: cell-based; details: Homo sapiens, 48 h, single dose 10 µM, read-out: Percentage Cell Growth
[9] = tested on: NCI-H460; test: NCI-60 SRB screen: non-small cell lung cancer NCI-H460; type: cell-based; details: Homo sapiens, 48 h; NCI-H460; single dose 10 µM; read-out: Percentage Cell Growth
[10] = tested on: COLO 205; test: NCI-60 SRB screen: colon cancer COLO 205; type: cell-based, human; details: COLO 205; single dose 10 µM
[11] = tested on: HCT-116; test: NCI-60 SRB screen: colon cancer HCT-116; type: cell-based; details: Homo sapiens, 48 h; HCT-116; single dose 10 µM; read-out: Percentage Cell Growth
[12] = tested on: HT29; test: NCI-60 SRB screen: colon cancer HT29; type: cell-based; details: Homo sapiens, HT-29, 48 h; HT29; single dose 10 µM; read-out: Percentage Cell Growth
[13] = tested on: KM12; test: NCI-60 SRB screen: colon cancer KM12; type: cell-based, human; details: KM12; single dose 10 µM
[14] = tested on: SW-620; test: NCI-60 SRB screen: colon cancer SW-620; type: cell-based; details: Homo sapiens, 48 h; SW-620; single dose 10 µM; read-out: Percentage Cell Growth
[15] = tested on: U251; test: NCI-60 SRB screen: CNS cancer U251; type: cell-based; details: Homo sapiens, U-251, 48 h; U251; single dose 10 µM; read-out: Percentage Cell Growth
[16] = tested on: LOX IMVI; test: NCI-60 SRB screen: melanoma LOX IMVI; type: cell-based, human; details: single dose 10 µM
[17] = tested on: IGROV1; test: NCI-60 SRB screen: ovarian cancer IGROV1; type: cell-based, human; details: IGROV1; single dose 10 µM
[18] = tested on: OVCAR-8; test: NCI-60 SRB screen: ovarian cancer OVCAR-8; type: cell-based, human; details: OVCAR-8; single dose 10 µM
[19] = tested on: MCF7; test: NCI-60 SRB screen: breast cancer MCF7; type: cell-based; details: Homo sapiens, 48 h; MCF7; single dose 10 µM; read-out: Percentage Cell Growth

For `C=C(C)[C@@H]1CC[C@]2(C(=O)NN(CCN(CCNC(=O)OC(C)(C)C)C(=O)OC(C)(C)C)C(=O)OC(C)(C)C)CC[C@]3(C)[C@H](CC[C@@H]4[C@@]5(C)CCC(=O)C(C)(C)[C@@H]5CC[C@]43C)[C@@H]12` [Compound 15], the activity at 10 µM ([1]; read-out: Mean Growth, %) was 90.1% and the activity at 10 µM ([1]; read-out: Range of Growth, %) was 56.8 to 114%.
`C=C(C)[C@@H]1CC[C@]2(C(=O)NCCCC[C@@H](N)C(=O)OC)CC[C@]3(C)[C@H](CC[C@@H]4[C@@]5(C)CCC(=O)C(C)(C)[C@@H]5CC[C@]43C)[C@@H]12` [Compound 17] showed an activity at 10 µM ([1]; read-out: Mean Growth, %) of 98.7% and an activity at 10 µM ([1]; read-out: Range of Growth, %) of 79.2 to 111%.
For `C=C(C)[C@@H]1CC[C@]2(COCCCN)CC[C@]3(C)[C@H](CC[C@@H]4[C@@]5(C)CC[C@H](OCCCN)C(C)(C)[C@@H]5CC[C@]43C)[C@@H]12` [Compound 18], the IC50 [2] was 5.7 ± 1.09 µM, the “Rat Liver ER Neutral α-Glucosidase Inhibition, m ± SD” value ([3]; 10 μM) was 56.64 ± 4.24 % and the “Rat Liver ER Neutral α-Glucosidase Inhibition, m ± SD” value ([3]; 100 μM) was 36.51 ± 14.90 %.
`C=C(C)[C@@H]1CC[C@]2(C(=O)NCCCCCCN(CCCN)CCCN)CC[C@]3(C)[C@H](CC[C@@H]4[C@@]5(C)CC[C@H](OCCCN)C(C)(C)[C@@H]5CC[C@]43C)[C@@H]12` [Compound 19] was tested, and the activity at 10 µM [4] was 11.8%, the “Percentage Cell Growth” value [5] was 1.52% and the activity at 10 µM [6] was 10.1%. For the same compound, the activity at 10 µM [7] was 29.3%, the activity at 10 µM [8] was 18.4% and the activity at 10 µM [9] was -16.2%. For the same compound, the “Percentage Cell Growth” value [10] was 18.88%, the activity at 10 µM [11] was 12.6% and the activity at 10 µM [12] was 4.21%. For the same compound, the “Percentage Cell Growth” value [13] was 31.48%, the activity at 10 µM [14] was 7.33% and the activity at 10 µM [15] was -39.5%. The “Percentage Cell Growth” value [16] was 5.71%, the “Percentage Cell Growth” value [17] was 27.33% and the “Percentage Cell Growth” value [18] was −28.27%. For the same compound, the activity at 10 µM [19] was 14.5%, the activity at 10 µM ([1]; read-out: Mean Growth, %) was 63% and the activity at 10 µM ([1]; read-out: Range of Growth, %) was -39.5 to 141%.
For `C=C(C)[C@@H]1CC[C@]2(C(=O)N3CCNCC3)CC[C@]3(C)[C@H](CC[C@@H]4[C@@]5(C)CCC(=O)C(C)(C)[C@@H]5CC[C@]43C)[C@@H]12` [Compound 20], the activity at 10 µM ([1]; read-out: Mean Growth, %) was 101% and the activity at 10 µM ([1]; read-out: Range of Growth, %) was 87.8 to 111%.
With `C=C(C)[C@@H]1CC[C@]2(CO)CC[C@]3(C)[C@H](CC[C@@H]4[C@@]5(C)CCCNC(C)(C)[C@@H]5CC[C@]43C)[C@@H]12` [Compound 23] the IC50 [2] was over 100 µM, the “Rat Liver ER Neutral α-Glucosidase Inhibition, m ± SD” value ([3]; 10 μM) was −1.34 ± 2.22% and the “Rat Liver ER Neutral α-Glucosidase Inhibition, m ± SD” value ([3]; 100 μM) was 5.85 ± 8.03%.
